Like-named read-outs stand apart in the source and are kept apart here.
Legend:
[1] = test system: C. elegans wild-type strain N2; experiment: Same C. elegans pumping assay format using wild-type strain N2; type: in vivo; settings: read-out: EC50 (μM) Wild type worm N2
Text: (§1) The screening of the compounds according to the present invention has been performed in the C. elegans based high-throughput screen for Kv4.3 modulators described above. The method for testing the activity on human Kv4.3 of the compounds according to the invention with C. elegans strains expressing human Kv4.3 for their activity is the same as the method described in WO 03/097682. The method for testing the compounds on wild-type C. elegans strains not expressing human Kv4.3 is the same as the method described in WO 00/63427. Briefly, UG1755 animals have been grown in large numbers and staged young adults (no or only few eggs inside the uterus) have been harvested on the day of screening. Approximately 125 animals in 80 μl buffer have been dispensed per well of a “U shaped 96-well compound plate The compound plate contained already compound material at a final concentration of 30 μM in 0.3% DMSO. After one hour incubation 10 μl of the fluorescent label Calcein AM (CAM) have been added to achieve a final concentration of 5 μM CAM and 0.8% DMSO. After another four hours of incubation at 20° C., the drinking of C. elegans animals (or the “reaction 8 measured by the uptake of CAM) has been stopped by adding 10 μl of a 60 μM ivermectin solution. The fluorescence intensity (counts per second) has been measured 40 minutes after adding ivermectin with the Wallac plate reader at a wavelength of 535 nm (after excitation at 485 nm).
These compounds have been also tested in the same assay format using a C. elegans wild-type strain N2 and the corresponding EC50 has been calculated. The ratio of the EC50s obtained for a compound on the two strains (transgenic expressing human Kv4.3 and wild-type) gives an indication on whether said compound is acting on human Kv4.3. […]

[2] = target: T1, human Kv4.3/KChIP2.2 potassium channel (Homo sapiens, UniProt Q9UK17); experiment: Whole cell patch clamp, CHO-K1 cells stably expressing human Kv4.3/KChIP2.2; type: cell-based; settings: Kv4.3 mediated current, charge; patch clamp; read-out: Kv4.3 charge IC50
T1 construct: expressed in transfected cells
T1 sequence (Q9UK17 1-655): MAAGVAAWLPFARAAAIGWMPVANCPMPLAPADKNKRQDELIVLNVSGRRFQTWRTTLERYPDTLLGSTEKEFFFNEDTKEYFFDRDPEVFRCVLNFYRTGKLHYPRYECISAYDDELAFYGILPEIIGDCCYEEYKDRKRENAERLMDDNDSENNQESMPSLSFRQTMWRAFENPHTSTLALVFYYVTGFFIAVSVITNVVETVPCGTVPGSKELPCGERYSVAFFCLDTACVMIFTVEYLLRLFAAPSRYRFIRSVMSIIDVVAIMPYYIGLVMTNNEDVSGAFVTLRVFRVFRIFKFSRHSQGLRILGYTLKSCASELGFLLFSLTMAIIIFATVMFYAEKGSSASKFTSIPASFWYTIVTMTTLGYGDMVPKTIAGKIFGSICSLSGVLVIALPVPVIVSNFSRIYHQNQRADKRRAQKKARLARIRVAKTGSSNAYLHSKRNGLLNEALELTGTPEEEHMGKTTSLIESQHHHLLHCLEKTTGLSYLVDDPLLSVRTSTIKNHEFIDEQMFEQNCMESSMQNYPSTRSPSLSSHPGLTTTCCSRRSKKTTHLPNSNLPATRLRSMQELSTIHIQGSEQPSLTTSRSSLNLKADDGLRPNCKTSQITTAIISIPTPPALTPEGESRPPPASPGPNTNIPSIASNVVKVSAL

human Kv4.3 [3] = target: T2, human Kv4.3 (Homo sapiens, UniProt Q9UK17); experiment: C. elegans based high-throughput screen for Kv4.3 modulators (pharynx pumping, Calcein AM uptake), transgenic strain UG1755; type: in vivo; settings: for Ratio N2/Kv4.3: EC50 on N2 divided by EC50 on the Kv4.3 expressing strain, cut-off 1.8; for EC50: transgenic strain UG1755 expressing human Kv4.3, read-out: EC50 (μM) Kv4.3 worm
T2 construct: expressed in transfected cells; host or cells: transgenic C. elegans strain UG1755 (N2 injected with plasmid pGV8, integrated array)
T2 sequence (Q9UK17 1-655): T1 sequence (Q9UK17 1-655)
Text: A C. elegans based high-throughput screen for Kv4.3 modulators has been used to establish an in vivo SAR (structure-activity relationships: the effect of chemical structure on biological activity) on Kv4.3 for the compounds according to the present invention.
This assay has employed a stable transgenic C. elegans strain that functionally expressed human Kv4.3 in the pharynx and a visible selection GFP maker in body-wall muscle.
The pharynx is the feeding organ of C. elegans and contracts rhythmically 3-4 times per second. The pharynx contraction is controlled by the nervous system via action potentials similar to the human myocyte and can thus be used to study human ion channel physiology in vivo in C. elegans.
Introducing the human Kv4.3 channel into the C. elegans pharynx influences the C. elegans action potential in a characteristic fashion. The additional number of potassium channels increases potassium ion efflux, enhances re-polarization and thereby shortens the action potential duration. […] The shortened action potentials of the C. elegans pharynx resulting from expression of human Kv4.3, changes the pharynx contraction-relaxation cycle and consequently reduces the pumping/feeding in these transgenic animals. This change of pumping is an end-point amenable to high-throughput screening technology. The pumping end-point can be technically translated into a high-throughput read-out by the use of a pro-fluorescent dye. The pro-fluorescent dye is taken up by C. elegans depending on its pumping activity and converted into a fluorescent dye by enzymes located in its intestines. After a defined incubation period, the change of fluorescence intensity in the intestine can be measured with a plate reader.
as §1
The active compounds have been identified and confirmed by dose-response analysis. An EC50 has been calculated and the results are listed under Table 3. Dose-response curves have been obtained at concentrations of 30 μM. EC50 has been calculated using XLfit 2.09 software package.

human Kv4.3 [4] = target: T2, human Kv4.3; experiment: Electropharyngeogram (EPG) recording on dissected pharynxes of transgenic C. elegans strain UG1755
Experimental: The method to describe the construction of a transgenic C. elegans strain expressing human Kv4.3 has been described in WO 03/097682. Briefly, the actual used strain UG1755 has been generated by microinjection into the gonad of a wild-type strain N2 with a mix of 5 ng/μl plasmid pGV8 (human Kv4.3), 20 ng/μl pDW2821 (GFP-marker) and 40 ng/ul genomic C. elegans DNA. Transgenic animals have been isolated and submitted to integration of the extra-chromosomal array into the genome of C. elegans. A line with 50% transmission of the functional expressed human Kv4.3 has been mutagenized with gamma irradiation using a Cobalt source. About 12000 F2 animals have been singled out and their progeny has been screened for the 100% transmission of the GFP marker. Lines with 100% transmission of GFP have been considered as potentially integrated. These lines have been further tested and out-crossed with N2 strain two-times. All lines obtained have been tested for viability, GFP and human Kv4.3 expression. At the end of a selection process, UG1755 was identified as most suitable C. elegans strain amenable to high throughput screening (HTS). […] Briefly, dissected pharynxes of UG1755 C. elegans animals have been prepared and Electropharyngeograms (EPGs) have been recorded using an Axopatch-1D amplifier (Axon instruments). […] The number of ultra short EPGs (10-20 ms) and normal EPGs (100-200 ms) has been analyzed and given as ratio in percentage. […] In addition, standard qRT-PCR confirmed the presence of the human Kv4.3 transgene in UG1755 as well as human Kv4.3 protein has been detected with the human Kv4.3 antibody P 0358 in the pharynx of UG1755 animals.
Introducing the human Kv4.3 channel into the C. elegans pharynx influences the C. elegans action potential in a characteristic fashion. […] The pumping end-point can be technically translated into a high-throughput read-out by the use of a pro-fluorescent dye. […] After a defined incubation period, the change of fluorescence intensity in the intestine can be measured with a plate reader.

O=C(N[C@@H]1CCC[C@H]1OCc1ccccc1)c1csc(Nc2ccc(Cl)cc2)n1 [Compound 40, 2-(4-chloro-phenylamino)-thiazole-4-carboxylic acid (1R,2R)-2-(benzyloxycyclopent-1-yl) amide]
EC50 [1]: > 30 µM
IC50 [2]: 3460 nM
Ratio N2/Kv4.3 (human Kv4.3 [3]): >2.5
EC50 (human Kv4.3 [3]): 12.1 µM

Cc1nc(Nc2ccc(Br)cc2)sc1C(=O)NCc1ccccc1 [Compound 20, 2-(4-bromo-phenylamino)-4-methyl-thiazole-5-carboxylic acid benzylamide]
EC50 ([1]; Caenorhabditis elegans): > 60 µM
IC50 [2]: 1720 nM
Ratio N2/Kv4.3 (human Kv4.3 [3]): >2.3
EC50 (human Kv4.3 [3]): 25 µM

2-(4-bromo-phenylamino)-4-methyl-thiazole-5-carboxylic acid (1R,2R)-2-(benzyloxycyclopent-1-yl) amide [Compound 25]
EC50 [1]: > 30 µM
IC50 [2]: 1320 nM
Ratio N2/Kv4.3 (human Kv4.3 [3]): >25
EC50 (human Kv4.3 [3]): 10.3 µM

O=C(N[C@@H]1CCC[C@H]1OCc1ccccc1)c1csc(Nc2ccccc2)n1 [Compound 48, 2-phenylaminothiazole-4-carboxylic acid (1R,2R)-2-(benzyloxycyclopent-1-yl) amide]
EC50 ([1]; Caenorhabditis elegans): 29.8 µM
IC50 [2]: 2470 nM
Ratio N2/Kv4.3 (human Kv4.3 [3]): 14.9
EC50 (human Kv4.3 [3]): 2 µM

Nc1ccncc1 [4-aminopyridine]
ultra short action potentials of the human Kv4.3 transgenic C. elegans pharynx (human Kv4.3 [4]): restored to normal action potentials

O=C(NCC1CCCCN1)c1cc(OCC(F)(F)F)ccc1OCC(F)(F)F (centres unmarked) [Flecainide]
ultra short action potentials of the human Kv4.3 transgenic C. elegans pharynx (human Kv4.3 [4]): restored to normal action potentials
After Application of Compound Ratio Ultra short to Normal EPGs in % (human Kv4.3 [4]; 100 μM Flecainide, strain UG1755, n = 15, before application 83 ± 13): 53 ± 24%

C[C@@H](NC(=O)c1csc(Nc2ccc(F)cc2)n1)c1ccc([N+](=O)[O-])cc1 [Compound 36, 2-(4-fluoro-phenylamino)-thiazole-4-carboxylic acid (R)-1-(4-nitro-phenyl)ethyl amide]
EC50 ([1]; Caenorhabditis elegans): 45 µM
Ratio N2/Kv4.3 (human Kv4.3 [3]): 2.0
EC50 (human Kv4.3 [3]): 22.7 µM

Cc1nc(Nc2ccc(Br)cc2)sc1C(=O)NCc1ccc([N+](=O)[O-])cc1 [Compound 23, 2-(4-bromo-phenylamino)-4-methyl-thiazole-5-carboxylic acid 4-nitro-benzylamide]
EC50 ([1]; Caenorhabditis elegans): 41 µM
IC50 [2]: 550 nM
Ratio N2/Kv4.3 (human Kv4.3 [3]): 2.8
EC50 (human Kv4.3 [3]): 14.6 µM

COc1ccc(Cl)cc1Nc1nc(C(=O)N[C@@H]2CCCC[C@H]2OCc2ccccc2)cs1 [Compound 51, 2-(5-chloro-2-methoxy-phenylamino)-thiazole-4-carboxylic acid (1R,2R)-2-(benzyloxycyclohex-1-yl) amide]
EC50 ([1]; Caenorhabditis elegans): > 30 µM
Ratio N2/Kv4.3 (human Kv4.3 [3]): >1.8
EC50 (human Kv4.3 [3]): 17 µM

COC[C@H](Cc1ccccc1)NC(=O)c1csc(Nc2cc(C)cc(C)c2)n1 [Compound 44, 2-(3,5-dimethyl-phenylamino)-thiazole-4-carboxylic acid (S)-(1-methoxymethyl-2-phenyl-ethyl)-amide]
EC50 ([1]; Caenorhabditis elegans): 39.5 µM
Ratio N2/Kv4.3 (human Kv4.3 [3]): 3.5
EC50 (human Kv4.3 [3]): 11.5 µM

— patent US20080125432A1 (Devgen NV, priority 2004, published 2008)
